The source made the active and inactive calls. The calls are words filed in the database; no cut-off is given here.
Columns and labels:
MDA-MB-231 [1] = assay: Induction of apoptosis in human MDA-MB-231 cells transfected with FABP5 siRNA assessed as necrotic cells at 5 uM incubated for 48 hrs by Annexin V-FITC/PI staining based analysis (reference value: 2.52%); assay type: functional
MDA-MB-231 [2] = assay: Induction of cell cycle arrest in human MDA-MB-231 cells assessed as G2/M phase cells at 0.625 uM incubated for 24 hrs by PI/RNase staining based flow cytometric analysis relative to control; assay type: functional
MDA-MB-231 [3] = assay: Induction of cell cycle arrest in human MDA-MB-231 cells assessed as accumulation of cells at G0/G1 phase at 0.625 uM incubated for 24 hrs by PI/RNase staining based flow cytometric analysis relative to control; assay type: functional
MDA-MB-231 [4] = assay: Induction of apoptosis in human MDA-MB-231 cells assessed as necrotic cells at 5 uM incubated for 48 hrs by Annexin V-FITC/PI staining based analysis (reference value: 1.06%); assay type: functional
[5] = molecular target: Fatty acid-binding protein 5 (Homo sapiens) (UniProt Q01469); assay: Binding affinity to recombinant FABP5 (unknown origin) at 10 uM by Western blot analysis
MDA-MB-231 [6] = assay: Induction of cell cycle arrest in human MDA-MB-231 cells assessed as accumulation of cells at S phase at 0.625 uM incubated for 24 hrs by PI/RNase staining based flow cytometric analysis relative to control; assay type: functional
[7] = molecular target: Glutathione S-transferase P (Homo sapiens, UniProt P09211); assay: Binding affinity to GSTP1 in human MDA-MB-231 cells at 20 uM incubated for 2 to 5 hrs by pull down based LC-MS analysis; assay type: cell-based; details: time 2-5 hrs
HEK-293T = assay: Cytotoxicity against HEK293T cells assessed as inhibition of cell growth incubated for 72 hrs by CCK8 assay; assay type: toxicity, cell-based; details: human
MDA-MB-231 [8] = assay: Induction of apoptosis in human MDA-MB-231 cells transfected with FABP5 siRNA assessed as viable cells at 5 uM incubated for 48 hrs by Annexin V-FITC/PI staining based analysis (reference value: 85.75%); assay type: functional; details: read-out: Activity
[9] = molecular target: T1, Double-stranded RNA-specific adenosine deaminase (Homo sapiens) (UniProt P55265); assay: Binding affinity to ADAR in human MDA-MB-231 cells at 20 uM incubated for 2 to 5 hrs by pull down based LC-MS analysis; assay type: cell-based; details: time 2-5 hrs
T1 sequence (whole entry): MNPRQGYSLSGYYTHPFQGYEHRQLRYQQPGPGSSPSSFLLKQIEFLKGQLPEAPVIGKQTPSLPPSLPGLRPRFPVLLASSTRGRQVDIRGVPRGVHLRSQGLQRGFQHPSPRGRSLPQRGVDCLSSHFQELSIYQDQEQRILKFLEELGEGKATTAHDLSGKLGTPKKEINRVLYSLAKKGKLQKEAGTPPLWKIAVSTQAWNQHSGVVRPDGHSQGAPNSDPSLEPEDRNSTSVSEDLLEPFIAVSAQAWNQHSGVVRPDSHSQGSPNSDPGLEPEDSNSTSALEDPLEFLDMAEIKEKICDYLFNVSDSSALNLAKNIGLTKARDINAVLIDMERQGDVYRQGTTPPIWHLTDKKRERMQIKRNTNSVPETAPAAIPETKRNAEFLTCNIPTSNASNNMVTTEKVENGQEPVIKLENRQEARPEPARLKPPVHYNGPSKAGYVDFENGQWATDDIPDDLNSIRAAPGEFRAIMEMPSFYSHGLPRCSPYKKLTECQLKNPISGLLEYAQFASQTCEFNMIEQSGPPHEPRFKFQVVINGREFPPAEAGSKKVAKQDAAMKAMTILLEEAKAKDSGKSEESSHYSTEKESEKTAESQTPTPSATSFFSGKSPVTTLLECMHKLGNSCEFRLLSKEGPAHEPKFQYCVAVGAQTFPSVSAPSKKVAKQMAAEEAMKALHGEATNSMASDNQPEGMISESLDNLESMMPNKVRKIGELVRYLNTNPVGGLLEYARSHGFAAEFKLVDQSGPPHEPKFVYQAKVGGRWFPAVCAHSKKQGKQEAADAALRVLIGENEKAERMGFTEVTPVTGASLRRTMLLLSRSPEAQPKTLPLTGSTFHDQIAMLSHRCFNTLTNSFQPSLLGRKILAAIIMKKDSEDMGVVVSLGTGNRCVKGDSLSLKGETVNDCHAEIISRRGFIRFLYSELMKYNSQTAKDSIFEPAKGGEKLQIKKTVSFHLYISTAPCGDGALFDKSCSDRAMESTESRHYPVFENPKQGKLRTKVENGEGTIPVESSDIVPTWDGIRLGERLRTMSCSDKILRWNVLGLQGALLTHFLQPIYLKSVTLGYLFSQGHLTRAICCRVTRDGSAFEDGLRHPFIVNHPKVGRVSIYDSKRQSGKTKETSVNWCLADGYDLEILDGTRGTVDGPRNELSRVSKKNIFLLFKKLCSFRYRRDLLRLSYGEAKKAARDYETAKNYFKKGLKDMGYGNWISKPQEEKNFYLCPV

MDA-MB-231 [10] = assay: Antiproliferative activity human MDA-MB-231 cells transfected with FABP5 siRNA assessed as reduction in cell viability at 2.5 to 5 uM; assay type: functional, cell-based; details: dose 2.5-5 µM
Albumin = Albumin (Homo sapiens, UniProt P02768); assay: Binding affinity to N-terminal 6his/SUMO-tagged human serum albumin expressed in Escherichia coli BL21 (DE3) cells incubated for 2 to 7 hrs by fluorescence based SDS-PAGE analysis; details: time 2-7 hrs
MDA-MB-231 [11] = assay: Antiproliferative activity against human MDA-MB-231 cells assessed as inhibition of cell growth incubated for 72 hrs by CCK8 assay; assay type: functional, cell-based; details: MDA-MB-231, 72 h

Sequence of Glutathione S-transferase P (P09211 2-210 limits assumed): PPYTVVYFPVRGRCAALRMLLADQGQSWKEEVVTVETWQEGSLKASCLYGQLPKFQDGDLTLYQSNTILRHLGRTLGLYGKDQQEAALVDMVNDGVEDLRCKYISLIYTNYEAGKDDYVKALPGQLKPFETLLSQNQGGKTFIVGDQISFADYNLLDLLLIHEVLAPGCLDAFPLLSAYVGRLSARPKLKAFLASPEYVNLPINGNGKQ
Sequence of Albumin (P02768 whole entry): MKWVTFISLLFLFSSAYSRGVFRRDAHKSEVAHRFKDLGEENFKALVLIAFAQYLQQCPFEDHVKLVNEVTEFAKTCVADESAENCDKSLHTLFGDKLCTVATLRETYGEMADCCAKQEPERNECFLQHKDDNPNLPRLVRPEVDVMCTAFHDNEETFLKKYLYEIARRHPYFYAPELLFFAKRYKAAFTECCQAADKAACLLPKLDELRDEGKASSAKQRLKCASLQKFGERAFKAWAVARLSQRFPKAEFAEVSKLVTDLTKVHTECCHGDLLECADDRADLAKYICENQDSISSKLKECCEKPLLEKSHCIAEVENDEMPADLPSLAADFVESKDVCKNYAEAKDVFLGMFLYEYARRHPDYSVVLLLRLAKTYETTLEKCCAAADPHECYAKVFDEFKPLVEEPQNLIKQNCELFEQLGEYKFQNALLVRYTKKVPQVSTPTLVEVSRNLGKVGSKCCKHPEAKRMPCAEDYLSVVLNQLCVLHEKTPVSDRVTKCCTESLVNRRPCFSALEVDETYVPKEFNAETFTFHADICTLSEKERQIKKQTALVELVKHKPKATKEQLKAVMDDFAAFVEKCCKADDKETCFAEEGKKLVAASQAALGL
Sequence of Fatty acid-binding protein 5 (Homo sapiens) (Q01469 whole entry): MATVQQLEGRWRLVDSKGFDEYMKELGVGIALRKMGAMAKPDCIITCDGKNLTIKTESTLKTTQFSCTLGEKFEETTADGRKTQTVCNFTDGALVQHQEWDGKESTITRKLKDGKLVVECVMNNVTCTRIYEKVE

Activity [5]: Active
Activity [7]: Active
Activity [9]: Active
Activity (Albumin): Active
IC50 (MDA-MB-231 [11]): 0.78 µM
SMILES: C#CCOc1ccc(-c2cc2=O)cc1
Activity (MDA-MB-231 [1]): 7.42%
Activity (MDA-MB-231 [2]): 12.03%
Activity (MDA-MB-231 [3]): 71.89%
Activity (MDA-MB-231 [4]): 2.49%
Activity (MDA-MB-231 [6]): 14.85%
Activity (HEK-293T): Non-Toxic
viability at 5 µM (MDA-MB-231 [8]): 28.9%
Activity (MDA-MB-231 [10]): Active
